According to ChEMBL document CHEMBL1138996, “Biological evaluation of isothiazoloquinolones containing aromatic heterocycles at the 7-position: In vitro activity of a series of potent antibacterial agents that are effective against methicillin-resistant Staphylococcus aureus” (Bioorg Med Chem Lett, 2006):
In brackets after ≈: the same amount, converted by molar mass.

Columns and labels:
Escherichia coli = test: Antibacterial activity against Escherichia coli ATCC 25922; type: functional
Staphylococcus aureus [1] = test: Antibacterial activity against Staphylococcus aureus ATCC 29213; type: functional
Staphylococcus aureus [2] = test: Antibacterial activity against methicillin-resistant Staphylococcus aureus ATCC 700699; type: functional
[3] = target: DNA topoisomerase 4 subunit A (Staphylococcus aureus, UniProt P0C1U9); test: Inhibitory activity against Staphylococcus aureus ATCC 29213 wild type Topo 4
HEp-2 = test: Cytotoxicity against Hep2 cell line; type: functional; conditions: Homo sapiens
Enterococcus faecium = test: Antibacterial activity against Enterococcus faecium ATCC 49032; type: functional
Enterococcus faecalis = test: Antibacterial activity against Enterococcus faecalis ATCC 29212; type: functional
Streptococcus pyogenes = test: Antibacterial activity against Streptococcus pyogenes ATCC 19615; type: functional
Streptococcus pneumoniae = test: Antibacterial activity against Streptococcus pneumoniae ATCC 49619; type: functional
Haemophilus influenzae = test: Antibacterial activity against Haemophilus influenzae type b ACH-0056; type: functional
Moraxella catarrhalis = test: Antibacterial activity against Moraxella catarrhalis ATCC 8176; type: functional
[4] = system: Stenotrophomonas maltophilia; test: Antibacterial activity against Stenotrophomonas maltophilia ATCC 13637; type: functional
Salmonella typhimurium = test: Antibacterial activity against Salmonella Typhimurium ATCC 14028; type: functional, Salmonella enterica subsp. enterica serovar Typhimurium; conditions: Salmonella enterica
Klebsiella pneumoniae = test: Antibacterial activity against Klebsiella pneumoniae ATCC 13883; type: functional
Pseudomonas aeruginosa = test: Antibacterial activity against Pseudomonas aeruginosa ATCC 27853; type: functional

Chain of DNA topoisomerase 4 subunit A (P0C1U9 whole entry): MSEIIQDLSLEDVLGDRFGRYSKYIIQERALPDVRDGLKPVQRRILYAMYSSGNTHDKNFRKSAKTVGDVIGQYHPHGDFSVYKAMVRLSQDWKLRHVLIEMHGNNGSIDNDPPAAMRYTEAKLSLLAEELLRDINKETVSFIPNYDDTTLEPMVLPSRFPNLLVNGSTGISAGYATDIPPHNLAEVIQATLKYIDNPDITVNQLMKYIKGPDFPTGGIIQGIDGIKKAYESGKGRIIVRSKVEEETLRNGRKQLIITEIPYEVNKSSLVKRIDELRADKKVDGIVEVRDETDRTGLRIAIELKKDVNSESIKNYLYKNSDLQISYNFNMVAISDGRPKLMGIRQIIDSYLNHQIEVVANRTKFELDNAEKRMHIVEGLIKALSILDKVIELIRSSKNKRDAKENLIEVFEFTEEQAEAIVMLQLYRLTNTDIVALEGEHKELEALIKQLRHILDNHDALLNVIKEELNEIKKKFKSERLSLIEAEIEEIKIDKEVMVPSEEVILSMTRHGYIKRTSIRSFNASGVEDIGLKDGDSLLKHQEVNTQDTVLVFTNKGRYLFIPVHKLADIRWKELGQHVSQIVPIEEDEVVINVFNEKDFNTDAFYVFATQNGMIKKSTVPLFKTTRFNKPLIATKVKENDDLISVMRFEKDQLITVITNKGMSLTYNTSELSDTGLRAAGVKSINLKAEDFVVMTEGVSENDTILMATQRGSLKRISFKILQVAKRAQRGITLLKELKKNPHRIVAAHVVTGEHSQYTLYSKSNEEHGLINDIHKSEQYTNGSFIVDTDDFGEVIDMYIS

Structure (SMILES)	MIC (Escherichia coli) [µg/mL]	MIC (Staphylococcus aureus [1]) [µg/mL]	MIC (Staphylococcus aureus [2]) [µg/mL]	IC50 [3] [µM]	CC50 (HEp-2) [µM]	MIC (Enterococcus faecium) [µg/mL]	MIC (Enterococcus faecalis) [µg/mL]	MIC (Streptococcus pyogenes) [µg/mL]	MIC (Streptococcus pneumoniae) [µg/mL]	MIC (Haemophilus influenzae) [µg/mL]	MIC (Moraxella catarrhalis) [µg/mL]	MIC [4] [µg/mL]	MIC (Salmonella typhimurium) [µg/mL]	MIC (Klebsiella pneumoniae) [µg/mL]	MIC (Pseudomonas aeruginosa) [µg/mL]
COc1ccc(-c2cc3c(cc2F)c(=O)c2c(=O)[nH]sc2n3C2CC2)c(OC)n1	2 (≈ 4.84 µM)	0.046 (≈ 0.111 µM)	8 (≈ 19.4 µM)	16	98	–	–	–	–	–	–	–	–	–	–
Cc1ccc(-c2cc3c(cc2F)c(=O)c2c(=O)[nH]sc2n3C2CC2)cn1	0.037 (≈ 0.101 µM)	0.0037 (≈ 0.0101 µM)	1 (≈ 2.72 µM)	8.5	31	–	–	–	–	–	–	–	–	–	–
O=c1[nH]sc2c1c(=O)c1cc(F)c(-c3ccc4cncnc4c3)cc1n2C1CC1	4 (≈ 9.89 µM)	0.06 (≈ 0.148 µM)	> 64	29	> 100	–	–	–	–	–	–	–	–	–	–
Cc1ccc(-c2cc3c(cc2F)c(=O)c2c(=O)[nH]sc2n3C2CC2)nc1	0.12 (≈ 0.327 µM)	0.044 (≈ 0.12 µM)	32 (≈ 87.1 µM)	14	51	–	–	–	–	–	–	–	–	–	–
Cc1ncccc1-c1cc2c(cc1F)c(=O)c1c(=O)[nH]sc1n2C1CC1	0.51 (≈ 1.39 µM)	0.13 (≈ 0.354 µM)	1 (≈ 2.72 µM)	3.5	12	–	–	–	–	–	–	–	–	–	–
O=c1[nH]sc2c1c(=O)c1cc(F)c(-c3cncc(C4CCCCN4)c3)cc1n2C1CC1 (stereo not given)	0.46 (≈ 1.05 µM)	0.12 (≈ 0.275 µM)	8 (≈ 18.3 µM)	5	6	–	–	–	–	–	–	–	–	–	–
O=c1[nH]sc2c1c(=O)c1cc(F)c(-c3ccc4ncccc4c3)cc1n2C1CC1	0.13 (≈ 0.322 µM)	0.0032 (≈ 0.00793 µM)	1 (≈ 2.48 µM)	3.2	> 100	–	–	–	–	–	–	–	–	–	–
O=c1[nH]sc2c1c(=O)c1cc(F)c(-c3ccccc3)cc1n2C1CC1	0.06 (≈ 0.17 µM)	0.0035 (≈ 0.00993 µM)	16 (≈ 45.4 µM)	6.3	> 100	–	–	–	–	–	–	–	–	–	–
Cc1ccnc(-c2cc3c(cc2F)c(=O)c2c(=O)[nH]sc2n3C2CC2)c1	0.25 (≈ 0.68 µM)	0.06 (≈ 0.163 µM)	32 (≈ 87.1 µM)	16	> 100	–	–	–	–	–	–	–	–	–	–
O=c1[nH]sc2c1c(=O)c1cc(F)c(-c3ccncc3)cc1n2C1CC1	0.028 (≈ 0.0792 µM)	0.0035 (≈ 0.0099 µM)	1 (≈ 2.83 µM)	2.2	–	–	–	–	–	–	–	–	–	–	–
O=c1[nH]sc2c1c(=O)c1cc(F)c(-c3cccc4cnccc34)cc1n2C1CC1	0.061 (≈ 0.151 µM)	0.016 (≈ 0.0397 µM)	> 64	23	45	–	–	–	–	–	–	–	–	–	–
O=c1[nH]sc2c1c(=O)c1cc(F)c(-c3ccnc(F)c3)cc1n2C1CC1	0.059 (≈ 0.159 µM)	0.0074 (≈ 0.0199 µM)	1 (≈ 2.69 µM)	19	> 100	–	–	–	–	–	–	–	–	–	–
O=c1[nH]sc2c1c(=O)c1cc(F)c(-c3ccc4[nH]ccc4c3)cc1n2C1CC1	0.059 (≈ 0.151 µM)	0.004 (≈ 0.0102 µM)	2 (≈ 5.11 µM)	> 40	> 82	–	–	–	–	–	–	–	–	–	–
Cc1cc(-c2cc3c(cc2F)c(=O)c2c(=O)[nH]sc2n3C2CC2)cc(C)n1	0.031 (≈ 0.0813 µM)	0.0038 (≈ 0.00996 µM)	0.25 (≈ 0.655 µM)	48	50	–	–	–	–	–	–	–	–	–	–
O=c1[nH]sc2c1c(=O)c1cc(F)c(-c3cccc4ncccc34)cc1n2C1CC1	0.016 (≈ 0.0397 µM)	0.016 (≈ 0.0397 µM)	2 (≈ 4.96 µM)	33	–	0.25 (≈ 0.62 µM)	0.125 (≈ 0.31 µM)	0.25 (≈ 0.62 µM)	0.061 (≈ 0.151 µM)	0.028 (≈ 0.0694 µM)	0.0081 (≈ 0.0201 µM)	4 (≈ 9.91 µM)	0.5 (≈ 1.24 µM)	0.5 (≈ 1.24 µM)	2 (≈ 4.96 µM)
O=c1[nH]sc2c1c(=O)c1cc(F)c(-c3cncnc3)cc1n2C1CC1	0.12 (≈ 0.339 µM)	0.025 (≈ 0.0705 µM)	8 (≈ 22.6 µM)	3.3	18	–	–	–	–	–	–	–	–	–	–
COc1ccc(-c2cc3c(cc2F)c(=O)c2c(=O)[nH]sc2n3C2CC2)cn1	0.015 (≈ 0.0391 µM)	0.023 (≈ 0.06 µM)	16 (≈ 41.7 µM)	26	> 100	–	–	–	–	–	–	–	–	–	–
COc1ncc(-c2cc3c(cc2F)c(=O)c2c(=O)[nH]sc2n3C2CC2)c(OC)n1	0.14 (≈ 0.338 µM)	0.019 (≈ 0.0458 µM)	1 (≈ 2.41 µM)	42	> 100	0.17 (≈ 0.41 µM)	0.058 (≈ 0.14 µM)	0.079 (≈ 0.191 µM)	0.079 (≈ 0.191 µM)	0.14 (≈ 0.338 µM)	0.021 (≈ 0.0507 µM)	2 (≈ 4.83 µM)	0.125 (≈ 0.302 µM)	0.5 (≈ 1.21 µM)	> 64
O=C(O)c1cn(C2CC2)c2cc(N3CCNCC3)c(F)cc2c1=O [CIPROFLOXACIN]	–	0.22 (≈ 0.664 µM)	32 (≈ 96.6 µM)	–	> 100	2 (≈ 6.04 µM)	0.56 (≈ 1.69 µM)	0.28 (≈ 0.845 µM)	0.56 (≈ 1.69 µM)	0.018 (≈ 0.0543 µM)	0.033 (≈ 0.0996 µM)	0.28 (≈ 0.845 µM)	0.018 (≈ 0.0543 µM)	0.033 (≈ 0.0996 µM)	–
COc1c(N2C[C@@H]3CCCN[C@@H]3C2)c(F)cc2c(=O)c(C(=O)O)cn(C3CC3)c12 [MOXIFLOXACIN]	0.013 (≈ 0.0324 µM)	0.061 (≈ 0.152 µM)	2 (≈ 4.98 µM)	0.8	> 100	0.125 (≈ 0.311 µM)	0.125 (≈ 0.311 µM)	0.061 (≈ 0.152 µM)	0.125 (≈ 0.311 µM)	0.013 (≈ 0.0324 µM)	0.061 (≈ 0.152 µM)	0.031 (≈ 0.0772 µM)	0.061 (≈ 0.152 µM)	0.031 (≈ 0.0772 µM)	1 (≈ 2.49 µM)
